Each structure is given as a SMILES string.

In series [1] the test system is right Purkinje fiber. The series is described as follows: Effect on myocardial action potential duration (APD75) in isolated, perfused Purkinje fiber. The following applies: Canis lupus familiaris, 20 min, 20 minutes' incubation, field stimulus of 1 Hz, 37°C, read-out: T (%), percent prolongation of myocardial action potential duration (APD75); for activation at 1 µM: Dose 1 x 10^-6 M; for activation at 10 µM: Dose 10 x 10^-6 M; for activation at 100 µM: Dose 100 x 10^-6 M. Type of series: cell-based, mongrel adult dog. The protocol: After a mongrel adult dog was anesthetized by the intravenous administration of 30 mg/kg of pentobarbital, the heart was excised therefrom. Then, the right Purkinje fiber was isolated in a nutrient fluid (i.e., Tyrode's solution). The isolated right Purkinje fiber was fixed in a constant-temperature bath (20 ml) at 37°C and perfused with Tyrode's solution. In this state, the myocardial action potential duration (APD75) was measured before and after the administration of each test compound. Then, the percent prolongation of myocardial action potential duration (T) after the administration of each test compound was calculated according to the following equation. T(%) =(B - A)/(A)x 100 [formula] where A: APD75 before administration B: APD75 after administration
APD75 was measured as follows: A field stimulus of 1 Hz was given to the right Purkinje fiber, and any change in action potential was detected by a glass microelectrode (10-20 MΩ) penetrated into a Purkinje fiber and monitored on an oscilloscope via an amplifier. The waveform on the oscilloscope was analyzed by means of a computer, and the duration beween the point of action potential generation adn the point of 75% repolarization was defined as APD75. The test compounds shown in Table 2 were separately added to the perfusing nutrient fluid, and after 20 minutes' incubation was recorded. This test was carried out according to the method of Sato et al. [S. Sato, K. Hashimoto; Arzneimittel Forschung, 34(1), 3a, 376-380(1984)].

In series [2] the test system is ventricular muscle. Kind of series: Effect on ventricular muscle refractory period (ERP) under ventricular pacing in anesthetized dog. Type of series: in vivo, mongrel adult dog. As to conditions: ventricular pacing at 400 msec. The protocol: According to the method described below, the refractory period was measured before and after the intravenous administration of each test compound, and the percent prolongation of refractory period (ERP) was calculated according to the following equation. ERP prolongation (%) =(W - Y)/(Y)x 100 [formula] where W: Refractory period after administration Y: Refractory period before administration
After a mongrel adult dog was anesthetized by the intravenous (i.v.) administration of 30 mg/kg of pentobarbital, the chest was opened on the right side. Then, a set of silver-silver chloride electrodes spaced by 3 mm was sewn on the right ventricle, and […] electrical stimuli (a duration of 4 msec, and a current intensity equal to twice the threshold) were given at an interval of 400 msec. Thereafter, a small amount of alcohol was injected into a sinus artery in order to destroy the pacemaker activity, and the ventricular refractory period (ERP) was measured under ventricular pacing. Specifically, one train comprised a series of stimuli having an interval of 400 msec, and the interval between trains was usually 400 msec. During measurement of the refractory period, this interval was shortened by decrements of 10 msec, and the interval between trains at which the response to the first stimulus of the train disappeared was regarded as the refractory period. These electrical stimuli were given by programmed stimulation using a heart stimulation apparatus (Diamedical Co., Ltd.; DHM-226-3).

A short description of series [3]: Toxicity test (mortality rate 24 hours after administration). The following applies: mouse, in vivo, ip; 100 mg/kg (i.p.); twenty-four hours after administration; groups of three mice. The protocol: The test compounds were separately administered to mice (ddy strain, male). The administration of each compound was carried out intraperitoneally (i.p.) in a dose of 100 mg/kg. Twenty-four hours after the administration, the mortality rate of the mice (in groups of three) was examined.

The nature of series [4]: Stability test in acid aqueous solution (Solution 1 of the Japanese Pharmacopoeia, pH 1.2), remaining compound by HPLC. In kind it is physicochemical. As to conditions: Solution 1 (pH 1.2). The protocol: In order to confirm the stability of the compounds of the present invention in an acid aqueous solution, stability was tested on the fumarate of 6-[3-[N-[2-(4-methanesulfonylaminophenyl)ethyl]-N-propylamino]propyl]-1,3-dimethyl-2,4(1H,3H)pyrimidinedione (the compound obtained in Example 118; hereinafter referred to as compound A) which is a compound in accordance with the present invention, and 1,3-dimethyl-6-{2-[N-ethyl-3-phenylpropylamino]ethylamino}2,4(1H,3H)-pyrimidinedione (hereinafter referred to as compound B) which is a pyrimidinedione derivative having a substituted amino group at the 6-position of the pyrimidinedione ring as described in European Publication No. 454,498 A2 and was used for purposes of comparison.
Solution 1 (pH 1.2) described in the Japaense Pharmacopoeia was prepared by adding 7.0 ml of hydrochloric acid and water to 2.0 g of sodium chloride so as to give the final volume of 1,000 ml.
Compounds A and B were dissolved in Solution 1 at a concentration of 2 mg/ml and the resulting solutions were stirred at 37°C. Thus, changes with time in the percentages of the remaining compounds A and B were examined by HPLC.

As for `CCN(CCCc1ccc(NS(C)(=O)=O)cc1)CCCc1cc(=O)n(C)c(=O)n1C` [Example 138, 6-[3-[N-ethyl-N-[3-(4-methanesulfonylaminophenyl)propyl]amino]propyl]-1,3-dimethyl-2,4(1H,3H)-pyrimidinedione], in series [1], the activation at 1 µM came to 6%, the activation at 10 µM was found to be 22% and the activation at 100 µM was 49%.

Regarding `CCCN(CCOc1ccc(NS(C)(=O)=O)cc1)CCc1cc(=O)n(C)c(=O)n1C` [Example 126, 6-[2-[N-n-propyl-N-[2-(4-methanesulfonylaminophenoxy)ethyl]amino]ethyl]-1,3-dimethyl-2,4(1H,3H)pyrimidinedione], in series [2] (Dose 0.3 mg/kg i.v.), the “ERP (%), percent prolongation of refractory period” value (shortened to “ERP (%), percent prolongation”) came out at 5.9%. Besides, the “ERP (%), percent prolongation” value in series [2] (Dose 1.0 mg/kg i.v.) came to 11.8%. In series [1], the activation at 1 µM was determined as 14%, the activation at 10 µM was 46% and the activation at 100 µM is 85%.

As for `CCN(CCCc1cc(=O)n(C)c(=O)n1C)CCOc1cccc(F)c1` [Example 38, 6-[3-[N-ethyl-N-[2-(3-fluorophenoxy)ethyl]amino]propyl]-1,3-dimethyl-2,4(1H,3H)pyrimidinedione], in series [1], the activation at 1 µM was 6%, the activation at 10 µM amounted to 16% and the activation at 100 µM was 22%.

As to `CCCN(CCCc1cc(=O)n(C)c(=O)n1C)CCc1ccc([N+](=O)[O-])cc1` [Example 76, 1,3-dimethyl-6-[3-[N-[2-(4-nitrophenyl)ethyl]-N-propylamino]propyl]-2,4(1H,3H)pyrimidinedione], in series [1], the activation at 1 µM stood at 52% and the activation at 10 µM worked out at 114%.

Take `CCN(CCCc1cc(=O)n(C)c(=O)n1C)CCOc1ccc(F)cc1` [Example 39, 6-[3-[N-ethyl-N-[2-(4-fluorophenoxy)ethyl]amino]propyl]-1,3-dimethyl-2,4(1H,3H)pyrimidinedione]: in series [1], the activation at 1 µM came to 14%, the activation at 10 µM was 53% and the activation at 100 µM came out at 49%.

Take `CC(C)N(CCCc1cc(=O)n(C)c(=O)n1C)CCOc1ccc(NS(C)(=O)=O)cc1` [Example 116, 6-[3-[N-[2-(4-methanesulfonylaminophenoxy)ethyl]-N-isopropylamino]propyl]-1,3-dimethyl-2,4(1H,3H)pyrimidinedione]: the mortality at 24 h in series [3] was 0%. For the same compound, the “ERP (%), percent prolongation” value came out at 6.3% in series [2] (Dose 0.1 mg/kg i.v.), 12.5% in series [2] (Dose 0.3 mg/kg i.v.) and 25.0% in series [2] (Dose 1.0 mg/kg i.v.). For the same compound, the activation at 1 µM in series [1] is 9%. Besides, the activation at 10 µM in series [1] stood at 43%. Also, the activation at 100 µM in series [1] was determined as 77%.

On to `CCN(CCCc1cc(=O)n(C)c(=O)n1C)CCOc1ccc([N+](=O)[O-])cc1` [Example 28, 6-[3-[N-ethyl-N-[2-(4-nitrophenoxy)ethyl]amino]propyl]-1,3-dimethyl-2,4(1H,3H)pyrimidinedione], for which, in series [1], the activation at 1 µM worked out at 14%, the activation at 10 µM is 35% and the activation at 100 µM was 114%.

`CCN(CCOc1ccc(F)cc1C(C)=O)CCc1cc(=O)n(C)c(=O)n1C` [Example 61, 6-[2-[N-[2-(2-acetyl-4-fluorophenoxy)ethyl]-N-ethylamino]ethyl]-1,3-dimethyl-2,4(1H,3H)pyrimidinedione]: in series [1], the activation at 1 µM is 3%, the activation at 10 µM amounted to 18% and the activation at 100 µM worked out at 35%.

Regarding `CC(=O)c1cc(F)ccc1OCCN(C)CCCc1cc(=O)n(C)c(=O)n1C` [Example 60, 6-[3-[N-[2-(2-acetyl-4-fluorophenoxy)ethyl]-N-methylamino]propyl]-1,3-dimethyl-2,4(1H,3H)pyrimidinedione], the mortality at 24 h in series [3] is 0%. In addition, in series [1], the activation at 1 µM came to 13%, the activation at 10 µM was 34% and the activation at 100 µM was determined as 47%.

Turning to `CCN(CCCc1cc(=O)n(C)c(=O)n1C)CCc1ccc([N+](=O)[O-])cc1` [Example 84, 6-[3-[N-ethyl-N-[2-(4-nitrophenyl)ethyl]amino]propyl]-1,3-dimethyl-2,4(1H,3H)pyrimidinedione], in series [1], the activation at 1 µM was 23%, the activation at 10 µM is 72% and the activation at 100 µM amounted to 96%.

In the case of `CCN(CCCOc1ccc(NS(C)(=O)=O)cc1)CCCc1cc(=O)n(C)c(=O)n1C` [Example 122, 6-[3-[N-ethyl-N-[3-(4-methanesulfonylaminophenoxy)propyl]amino]propyl]-1,3-dimethyl-2,4(1H,3H)-pyrimidinedione], in series [1], the activation at 1 µM was found to be 10%, the activation at 10 µM is 14% and the activation at 100 µM was 33%.

Take `CCN(CCOc1ccc(NS(C)(=O)=O)cc1)CCc1cc(=O)n(C)c(=O)n1C` [Example 123, 6-[2-[N-ethyl-N-[2-(4-methanesulfonylaminophenoxy)ethyl]amino]ethyl]-1,3-dimethyl-2,4(1H,3H)-pyrimidinedione]: in series [1], the activation at 1 µM amounted to 12%, the activation at 10 µM is 41% and the activation at 100 µM came out at 64%.

In the case of `CC(C)N(CCCc1cc(=O)n(C)c(=O)n1C)CCOc1ccc(-n2ccnc2)cc1` [Example 53, 6-[3-[N-[2-(4-(1H-imidazol-1-yl)phenoxy)ethyl]-N-isopropylamino]propyl]-1,3-dimethyl-2,4(1H,3H)pyrimidinedione], in series [3], the mortality at 24 h was 0%. For the same compound, in series [1], the activation at 1 µM was 8%, the activation at 10 µM came out at 24% and the activation at 100 µM came to 49%.

In series [3], `CCCN(CCCc1cc(=O)n(C)c(=O)n1C)CCOc1ccc(C(C)=O)cc1` [Example 47, 6-[3-[N-[2-(4-acetylphenoxy)ethyl]-N-propylamino]propyl]-1,3-dimethyl-2,4(1H,3H)pyrimidinedione] came in with a mortality at 24 h of 0%. In addition, in series [1], the activation at 1 µM turned out to be 13%, the activation at 10 µM was 53% and the activation at 100 µM is 107%.

Regarding `CCN(CCCc1ccccc1)CCNc1cc(=O)n(C)c(=O)n1C` [compound B, 1,3-dimethyl-6-{2-[N-ethyl-3-phenylpropylamino]ethylamino}2,4(1H,3H)-pyrimidinedione], in series [4] (0 hr, 2 mg/ml, stirred at 37°C, HPLC), the “Percentage of remaining compound” value stood at 100%. Also, the fraction remaining at 3 h in series [4] (jp solution 1, 3 hr, 2 mg/ml, stirred at 37°C, HPLC, read-out: Percentage of remaining compound) turned out to be 96%. In addition, the degraded at 6 h in series [4] (jp solution 1, 6 hours, 37°C, read-out: decrease after 6 hours' heating) was found to be 7%. Also, the fraction remaining at 6 h in series [4] (jp solution 1, 6 hr, 2 mg/ml, stirred at 37°C, HPLC, read-out: Percentage of remaining compound) is 93%.
